Measured values as given in the NIST ThermoML archive (doi:10.1021/je2008445).
Numbers after ± are expanded uncertainties.

Columns and labels:
[1] = Liquid, Ebulliometric method (Recirculating still)
[2] = refractive index (Na D-line) (dimensionless); details: 298.15 K; 101.33 kPa; Liquid; Standard Abbe refractometry

vapor or sublimation pressure ([1]; 372.73 K) [kPa]	Structure (SMILES)	vapor or sublimation pressure ([1]; 350.23 K) [kPa]	refractive index [2]
–	CCOC(C)=O [ethyl acetate]	101.33 ± 1.6	1.3712 ± 0.0005
101.33 ± 1.6	C[Si](C)(C)O[Si](C)(C)C [hexamethyldisiloxane]	–	1.3737 ± 0.0005
